How the values were obtained:
Type in all cases: in vivo
[1] = system: GPx-1 (+/+)- and GPx-1 (−/−)-mice; assay: Locomotor activity after MA; conditions: PKC inhibitors intra-striatal (chelerythrine 0.2 ug/head, rottlerin 3.0 ug/head significant); MA 8 mg/kg i.p. x4; GPx-1 (+/+) and (−/−) mice
Experimental: (§1) The mice received four times of MA (8 mg/kg, ip) or saline as a 2 hr-time interval. Chemicals (AME, EBS, and PKC inhibitors) were administrated for 5 consecutive days (twice daily), and were given 2 times at 4 hr and 30 min before the first MA injection as shown in the experimental schedule. Animals were sacrificed at 4 hrs and 3 days after the final MA administration.
Locomotor activity was measured for 30 min 3 days after the last MA administration using an automated video-tracking system (Noldus Information Technology, Wagenin, The Netherlands). Four test boxes (40×40×30 cm high) were operated simultaneously by an IBM computer. Mice were studied individually during locomotion in each test box, where they were adapted for 5 min before starting the experiment. […] The distance traveled in cm by the animals in horizontal locomotor activity was analyzed. Data were collected and analyzed between 09:00 and 17:00 h (Kim et al., 2001).

[2] = system: GPx-1 (+/+)- and GPx-1 (−/−)-mice; assay: MA-induced hyperthermia (rectal temperature); conditions: PKC inhibitors intra-striatal (doses of Table 1); MA 8 mg/kg i.p. x4; GPx-1 (+/+) and GPx-1 (−/−) mice
Experimental: as §1
Rectal temperature was measured in the MA- or saline-treated mice. Measurement was performed at constant daytime intervals starting at 9:00 A.M. to avoid the influence on circadian variations. Rectal temperature was measured by inserting a thermometer probe lubricated with oil at least 3 cm into the rectum of the mice. To prevent sudden movements occurring especially in MA-treated mice, animals were gently handled with a wool glove while their tail was moved to allow the probe insertion. This was done to prevent the effects of restrain stress on rectal temperature. When the attempt to insert probe was not successful (i.e., sudden movements of the animal or the need to restrain the mouse), the animal was excluded from the groups.

[3] = system: GPx-1 (+/+)- and GPx-1 (−/−)-mice; assay: Rota-rod test after MA; conditions: PKC inhibitors intra-striatal (chelerythrine 0.2 ug/head, rottlerin 3.0 ug/head significant); MA 8 mg/kg i.p. x4; GPx-1 (+/+) and (−/−) mice
Experimental: as §1
The apparatus (Ugo Basile model 7650, Comerio, VA, Italy) consisted of a base platform and a rotating rod with a nonslippery surface. The rod was placed at a height of 15 cm from the base. The rod, 30 cm in length, was divided into 5 equal sections by 6 opaque disks (so that the subjects cannot be distracted by one another) To assess motor performance, the mice first trained on the apparatus 2 minutes at a constant rate of 4 r.p.m. per 30 s prior to the test. The test was performed 30 minutes after training and an accelerating paradigm was applied, starting from a rate of 4 r.p.m. to a maximum speed of 40 r.p.m., then the rotation speed was kept constant at 40 r.p.m. for a maximum of 300 s. The duration for which the animal could maintain balance on the rotating drum was measured as the rotarod latency, with a maximal cut-off time of 300 s.

Structure (SMILES) | effect on MA-induced impairment in locomotor activity [1] | effect on MA-induced hyperthermia [2] | effect on MA-induced impairment in rota-rod performance [3]
O=c1cc(O)cc(/C=C/c2ccc(O)c(O)c2)o1 [hispidin] | did not affect MA-induced behavioral impairments | did not show any significant effect | did not affect MA-induced behavioral impairments
Cn1c2ccccc2c2c3c(c4c5ccccc5n(CCC#N)c4c21)CNC3=O [Go 6976] | did not affect MA-induced behavioral impairments | did not show any significant effect | did not affect MA-induced behavioral impairments

Source: patent US20120328696A1, “ANTI-PARKINSONIAN COMPOUND ACETYLSALICYLIC ACID MALTOL ESTER” (Hutecs Korea Pharmaceutical Co., Ltd., priority 2008, published 2012)
